Reference: patent US20220145406A1, “BIOMARKERS, AND USES IN TREATMENT OF VIRAL INFECTIONS, INFLAMMATIONS, OR CANCER” (ABIVAX, priority 2018, published 2022)

Each molecule was assayed on miR-124 (assay: miR-124 (RT-q)PCR in PBMCs, CD4+ and CD8+ T cells, macrophages). Conditions: PBMCs treated with antiretrovirals.
Type: cell-based, human
Procedure: Buffy coats from HIV-negative individuals were obtained from the local blood donation center in Centre de transfusion sanguine Montpellier. Human peripheral blood mononuclear cells (PBMCs) were isolated by Ficoll (Histopaque, Sigma) gradient centrifugation. CD4+ and CD8+ T cells were purified from PBMCs after Ficoll gradient centrifugation by Human CD4+ beads positive selection and CD8+ beads positive selection, respectively (Miltenyi). PBMCs, CD4+ and CD8+ T cells were grown at 37° C. and 5% CO2 to a density of 1.5×10^6 cells/ml in RPMI GlutaMAX medium (Life Technologies) supplemented with 10% fetal calf serum (FCS) (Thermo Fisher), 40 U/ml of IL2 (PeproTech) and 5 μg/mL of PHA (Roche) for 2 days. Three days later, cells were resuspended at 1.5×10^6 cells/ml in RPMI supplemented with 10% FCS and 40 U/ml IL2 and separated into two parts (infected and uninfected cells). Cells were infected with 80 ng of p24/106 cells of the YU-2 strain for 4 to 6 hours and then rinsed with PBS before medium renewal.
Both infected and uninfected cells were then centrifuged and resuspended to a density of 1.5×10^6 cells/ml in medium supplemented with diluted drug solubilized in DMSO (Sigma) to a final 0.05% DMSO concentration or antiretroviral compounds according to the manufacturer's instructions. Cells were treated for 6 days with a medium renewal at day 3. HIV p24 titration was performed by ELISA from cell culture supernatants with Innotest kit (Ingen) according to the manufacturer's instructions.
To generate monocyte-derived macrophages, monocytes were isolated using CD14+ positive microbeads (Miltenyi) and cultured in X-VIVO 10 medium (Lonza) supplemented with 10 mM HEPES, 1 mM sodium pyruvate, 1% non-essential amino acids, 10% FBS, 10 ng/ml GM-CSF and 100 ng/ml M-CSF for 7 days with medium renewal at day 3. After 7 days of differentiation, the cells were washed, plated in 6-well plates and incubated for 24 hours in medium without cytokine addition. Cells were treated for 6 days with a partial medium change at day 3.
miRNAs were extracted from PBMCs, CD4+ or CD8+ T cells using the NucleoSpin miRNeasy kit (Macherey-Nagel) according to the manufacturer's instructions. miRNA reverse transcription (RT) was performed using the miScript II RT kit (Qiagen). […] The relative levels of miR-124 were calculated using the 2^−ΔΔCt method.
Total RNA was extracted from macrophages using the Macherey-Nagel NucleoSpin miRNeasy kit. miRNA reverse transcription (RT) was performed on 2 μl of total RNA according to the Applied Biosystems TaqMan Advanced miRNA assays protocol for TaqMan qPCR. […] PCR runs were analyzed with Applied Biosystems ViiA 7 software.
`Cc1cn([C@H]2C[C@H](N=[N+]=[N-])[C@@H](CO)O2)c(=O)[nH]c1=O` [AZT] was tested, and the “miR-124 expression compared to untreated cells (DMSO)” value was “did not upregulate”.
In the case of `CC(C)CN(C[C@@H](O)[C@H](Cc1ccccc1)NC(=O)O[C@H]1CO[C@H]2OCC[C@H]21)S(=O)(=O)c1ccc(N)cc1` [darunavir], the “miR-124 expression compared to untreated cells (DMSO)” value is reported as “did not upregulate”.
With `O=C1Nc2ccc(Cl)cc2[C@@](C#CC2CC2)(C(F)(F)F)O1` [efavirenz] the “miR-124 expression compared to untreated cells (DMSO)” value was “did not upregulate”.
maraviroc was tested, and the “miR-124 expression compared to untreated cells (DMSO)” value was “did not upregulate”.
